Results published in ChEMBL document CHEMBL1144693, “Botryolides A-E, decarestrictine analogues from a fungicolous Botryotrichum sp. (NRRL 38180)” (J Nat Prod, 2008).
Activity calls are given as the source filed them.

Legend:
Type in all cases: functional, organism-based
[1] = test system: Staphylococcus aureus; assay: Antibacterial activity against Staphylococcus aureus ATCC 25923 at 100 ug/disk
[2] = test system: Bacillus subtilis; assay: Antibacterial activity against Bacillus subtilis ATCC 6051 at 100 ug/disk
[3] = test system: Candida albicans; assay: Antifungal activity against Candida albicans ATCC 14053 at 100 ug/disk
[4] = test system: Fusarium verticillioides; assay: Antifungal activity against Fusarium verticillioides NRRL 25457 at 100 ug/disk
[5] = test system: Aspergillus flavus; assay: Antifungal activity against Aspergillus flavus NRRL 6541 at 100 ug/disk

Measured: Activity

C[C@@H]1C[C@@H]2O[C@@H]2[C@H]2O[C@@H]2[C@@H](O)CC(=O)O1
inactive: all assays above

C[C@@H]1C[C@H](O)C(=O)CCC(O)CC(=O)O1 (stereo partly drawn)
inactive: all assays above

C[C@@H]1C[C@@H]2O[C@@H]2/C=C/[C@H](O)CC(=O)O1
inactive: all assays above

C[C@@H]1C[C@@H]2O[C@@H]2/C=C/[C@]2(CC(=O)O1)C[C@@H](O)C(=O)O2
inactive: [1] | [2] | [3]
